Results from paper PMC6325200, “Effects of Microplate Type and Broth Additives on Microdilution MIC Susceptibility Assays” (Antimicrobial Agents and Chemotherapy, 2018).
≈ marks a conversion by molar mass, not a printed value.

Key:
[1] = test system: P. aeruginosa ATCC 10145; experiment: microbe, parasite or virus in culture; details: Pseudomonas aeruginosa, n = 2
Procedure, shortened: (§1)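 Every plate included two controls, one row of bacteria alone and one of medium only. Test agents and standard antibiotics underwent twofold dilution series in 96-well format, and cultures were diluted 40-fold into MH broth in the presence or absence of Tween before 2–3 h at 37°C.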

[2] = test system: K. pneumoniae ATCC 13883; experiment: microbe, parasite or virus in culture; details: Klebsiella pneumoniae, n = 2
Procedure, shortened: as §1

[3] = test system: A. baumannii ATCC 19606; experiment: microbe, parasite or virus in culture; details: Acinetobacter baumannii, n = 2
Procedure, shortened: as §1

[4] = test system: E. coli; details: literature value; cited from earlier work
[5] = test system: E. coli ATCC 25922; experiment: microbe, parasite or virus in culture; details: n = 2
Procedure: A positive control of a row of just the bacteria and a negative control of only the medium were included for every plate tested.
The compounds along with standard antibiotics were serially diluted 2-fold across the 96-well plates. […] A sample of each culture was then diluted 40-fold in fresh MH broth (in presence and absence of Tween) and incubated at 37°C for 2 to 3 h.
For experiments in the presence of surfactant, 2% beractant (25 mg/ml) was added to the mid-log-phase cultures and mixed gently and added to all the 96-well plates. For experiments in the presence of serum, a mixture of 50% of human serum along with 50% MHB was prepared and used throughout the experiment.

COc1cc(Cc2cnc(N)nc2N)cc(OC)c1OC [Trimethoprim, trimethoprim]
MIC ([1]; ATCC10145, Corning NBS, MHB +T80): > 64 µg/mL
MIC ([1]; ATCC10145, Corning NBS, MHB -T80): > 64 µg/mL
MIC ([1]; ATCC10145, Corning PS, MHB +T80): > 64 µg/mL
MIC ([1]; ATCC10145, Corning PS, MHB -T80): > 64 µg/mL
MIC ([1]; ATCC10145, Corning TC, MHB +T80): > 64 µg/mL
MIC ([1]; ATCC10145, Corning TC, MHB -T80): > 64 µg/mL
MIC ([2]; ATCC13883, Corning NBS, MHB +T80): 1 to 2 µg/mL (≈ 3.44 to 6.89 µM)
MIC ([2]; ATCC13883, Corning NBS, MHB -T80): 4 to 8 µg/mL (≈ 13.8 to 27.6 µM)
MIC ([2]; ATCC13883, Corning PS, MHB +T80): 2 to 4 µg/mL (≈ 6.89 to 13.8 µM)
MIC ([2]; ATCC13883, Corning PS, MHB -T80): 1 to 8 µg/mL (≈ 3.44 to 27.6 µM)
MIC ([2]; ATCC13883, Corning TC, MHB +T80): 4 to 16 µg/mL (≈ 13.8 to 55.1 µM)
MIC ([2]; ATCC13883, Corning TC, MHB -T80): 4 to 16 µg/mL (≈ 13.8 to 55.1 µM)
MIC ([3]; ATCC19606, Corning NBS, MHB +T80): 64 µg/mL (≈ 220 µM)
MIC ([3]; ATCC19606, Corning NBS, MHB -T80): 16 to 32 µg/mL (≈ 55.1 to 110 µM)
MIC ([3]; ATCC19606, Corning PS, MHB +T80): > 64 µg/mL
MIC ([3]; ATCC19606, Corning PS, MHB -T80): > 64 µg/mL
MIC ([3]; ATCC19606, Corning TC, MHB +T80): 32 to 64 µg/mL (≈ 110 to 220 µM)
MIC ([3]; ATCC19606, Corning TC, MHB -T80): 16 to 32 µg/mL (≈ 55.1 to 110 µM)
MIC (literature) [4]: 0.06–0.25 ([72]) µg/ml
MIC ([5]; Corning NBS plate, MHB −T80, no additive): 0.25 to 0.5 µg/mL
MIC ([5]; Corning PS plate, MHB +0.002% T80, no further additive): 1 to 2 µg/mL
MIC ([5]; Corning PS plate, MHB −T80, no additive): 0.25 to 0.5 µg/mL
MIC ([5]; Corning TC plate, MHB +0.002% T80, no further additive): 0.5 to 1 µg/mL
MIC ([5]; Corning TC plate, MHB −T80, no additive): 0.25 to 0.5 µg/mL
MIC ([5]; Escherichia coli, ATCC25922, 24 h, Corning NBS, MH + 2% LHB, 2% LS): 1 µg/mL
MIC ([5]; Escherichia coli, ATCC25922, 24 h, Corning NBS, MH + 2% LHB, 50% HS): 1 to 2 µg/mL
MIC ([5]; Escherichia coli, ATCC25922, 24 h, Corning NBS, MH + 2% LHB, no additive): 1 µg/mL
MIC ([5]; Escherichia coli, ATCC25922, 24 h, Corning NBS, MH + T80, 2% LS): 2 µg/mL
MIC ([5]; Escherichia coli, ATCC25922, 24 h, Corning NBS, MH + T80, 50% HS): 2 µg/mL
MIC ([5]; Escherichia coli, ATCC25922, 24 h, Corning PS, MH + 2% LHB, 2% LS): 1 to 2 µg/mL
MIC ([5]; Escherichia coli, ATCC25922, 24 h, Corning PS, MH + 2% LHB, 50% HS): 1 to 8 µg/mL
MIC ([5]; Escherichia coli, ATCC25922, 24 h, Corning PS, MH + 2% LHB, no additive): 1 to 2 µg/mL
MIC ([5]; Escherichia coli, ATCC25922, 24 h, Corning PS, MH + T80, 2% LS): 1 to 2 µg/mL
MIC ([5]; Escherichia coli, ATCC25922, 24 h, Corning PS, MH + T80, 50% HS): 1 to 2 µg/mL
MIC ([5]; Escherichia coli, ATCC25922, 24 h, Corning TC, MH + 2% LHB, 2% LS): 1 to 2 µg/mL
MIC ([5]; Escherichia coli, ATCC25922, 24 h, Corning TC, MH + 2% LHB, 50% HS): 1 to 2 µg/mL
MIC ([5]; Escherichia coli, ATCC25922, 24 h, Corning TC, MH + 2% LHB, no additive): 1 µg/mL
MIC ([5]; Escherichia coli, ATCC25922, 24 h, Corning TC, MH + T80, 2% LS): 1 to 2 µg/mL
MIC ([5]; Escherichia coli, ATCC25922, 24 h, Corning TC, MH + T80, 50% HS): 1 to 2 µg/mL
MIC ([5]; Escherichia coli, ATCC25922, 24 h, Trek PS, MH + 2% LHB, 2% LS): 0.5 to 1 µg/mL
MIC ([5]; Escherichia coli, ATCC25922, 24 h, Trek PS, MH + 2% LHB, 50% HS): 1 µg/mL
MIC ([5]; Escherichia coli, ATCC25922, 24 h, Trek PS, MH + 2% LHB, no additive): 1 µg/mL
MIC ([5]; Escherichia coli, ATCC25922, 24 h, Trek PS, MH + T80, 2% LS): 2 µg/mL
MIC ([5]; Escherichia coli, ATCC25922, 24 h, Trek PS, MH + T80, 50% HS): 2 to 4 µg/mL
MIC ([5]; Escherichia coli, ATCC25922, Corning NBS plate, MHB +0.002% T80, no further additive): 1 µg/mL (≈ 3.44 µM)
MIC ([5]; Escherichia coli, ATCC25922, Corning NBS plate, MHB −T80, no additive): 0.25 to 0.5 µg/mL (≈ 0.861 to 1.72 µM)
MIC ([5]; Escherichia coli, ATCC25922, Corning NBS, MH, 2% LS): 1 to 2 µg/mL (≈ 3.44 to 6.89 µM)
MIC ([5]; Escherichia coli, ATCC25922, Corning NBS, MH, 50% HS): 1 to 2 µg/mL (≈ 3.44 to 6.89 µM)
MIC ([5]; Escherichia coli, ATCC25922, Corning PS plate, MHB +0.002% T80, no further additive): 1 to 2 µg/mL (≈ 3.44 to 6.89 µM)
MIC ([5]; Escherichia coli, ATCC25922, Corning PS plate, MHB −T80, no additive): 0.25 to 0.5 µg/mL (≈ 0.861 to 1.72 µM)
MIC ([5]; Escherichia coli, ATCC25922, Corning PS, MH, 2% LS): 1 µg/mL (≈ 3.44 µM)
MIC ([5]; Escherichia coli, ATCC25922, Corning PS, MH, 50% HS): 1 to 2 µg/mL (≈ 3.44 to 6.89 µM)
MIC ([5]; Escherichia coli, ATCC25922, Corning TC plate, MHB +0.002% T80, no further additive): 0.5 to 1 µg/mL (≈ 1.72 to 3.44 µM)
MIC ([5]; Escherichia coli, ATCC25922, Corning TC plate, MHB −T80, no additive): 0.25 to 0.5 µg/mL (≈ 0.861 to 1.72 µM)
MIC ([5]; Escherichia coli, ATCC25922, Corning TC, MH, 2% LS): 1 to 2 µg/mL (≈ 3.44 to 6.89 µM)
MIC ([5]; Escherichia coli, ATCC25922, Corning TC, MH, 50% HS): 0.5 to 1 µg/mL (≈ 1.72 to 3.44 µM)
MIC ([5]; Escherichia coli, ATCC25922, Nunc PS plate, MHB +0.002% T80): 0.25 to 0.5 µg/mL (≈ 0.861 to 1.72 µM)
MIC ([5]; Escherichia coli, ATCC25922, Nunc PS plate, MHB −T80): 0.25 µg/mL (≈ 0.861 µM)
MIC ([5]; Escherichia coli, ATCC25922, Nunc U TC plate, MHB +0.002% T80): 0.25 to 0.5 µg/mL (≈ 0.861 to 1.72 µM)
MIC ([5]; Escherichia coli, ATCC25922, Nunc U TC plate, MHB −T80): 0.25 to 0.5 µg/mL (≈ 0.861 to 1.72 µM)
MIC ([5]; Escherichia coli, ATCC25922, Nunc flat TC plate, MHB +0.002% T80): 0.25 to 0.5 µg/mL (≈ 0.861 to 1.72 µM)
MIC ([5]; Escherichia coli, ATCC25922, Nunc flat TC plate, MHB −T80): 0.25 to 0.5 µg/mL (≈ 0.861 to 1.72 µM)
MIC ([5]; Escherichia coli, ATCC25922, Trek PS plate, MHB +0.002% T80, no further additive): 2 µg/mL (≈ 6.89 µM)
MIC ([5]; Escherichia coli, ATCC25922, Trek PS plate, MHB −T80, no additive): 0.5 to 1 µg/mL (≈ 1.72 to 3.44 µM)
MIC ([5]; Escherichia coli, ATCC25922, Trek PS, MH, 2% LS): 1 to 4 µg/mL (≈ 3.44 to 13.8 µM)
MIC ([5]; Escherichia coli, ATCC25922, Trek PS, MH, 50% HS): 1 µg/mL (≈ 3.44 µM)
MIC ([5]; Trek PS plate, MHB −T80, no additive): 0.5 to 1 µg/mL
